Data published in patent US20220160669A1, “PARENTERAL NUTRITION FORMULATION” (BAXTER INTERNATIONAL INC., priority 2020, published 2022).
Entries after “also recorded” stand apart in the source; their conditions may differ.

How the values were obtained:
Format in all cases: in vivo, pig
[1] = tested on: Neonatal Yorkshire/Landrace cross bred piglets; assay: Duodenal mucosal resistance (Ussing chamber), PN-fed neonatal piglets; design: key to Duodenal Mucosal Resistance (Ussing chamber): +++ indicate P < 0.01; ++ indicates P < 0.05; + indicates positive trends; = denotes no significant P value; − denotes negative trends; key to Duodenal mucosal resistance, Grouping (Fisher's LSD test): Groups that do not share a letter are significantly different; ab: Groups that do not share a letter are significantly different; b: Groups that do not share a letter are significantly different; details: for Mean duodenal mucosal resistance: N 12; for Duodenal mucosal resistance, Grouping (Fisher's LSD test): PN group a, EN group b; for Duodenal Mucosal Resistance (Ussing chamber): compared to standard PN (s-PN)
From the text: It is known also that there is a relationship between intestinal epithelial integrity and intestinal health (Thomson et al., The Ussing chamber system for measuring intestinal permeability in health and disease, BMC Gastroenterology 2019; 19:98). Impairment of barrier function has been linked to intestinal diseases such as, for example, ulcerative colitis and Crohn's disease. The so-called Ussing system offers an ex vivo measurement of the permeability or duodenal mucosal resistance. The system allows to measure said duodenal mucosal (transepithelial) resistance (TER), which can be determined to give an overall measurement of gut integrity. A low TER value is indicative of increased permeability. Prior studies have shown that decreased TER under inflammatory conditions was associated with down regulation of “sealing” tight junctional proteins. Accordingly, determining epithelial integrity by means of the Ussing chamber constituted one option to assess the influence of various nutritional options (e.g. EN vs PN) and various PN compositions (see Example 3.5) on gut health and specifically on local inflammatory incidents.
(§1) Neonatal Yorkshire/Landrace cross bred piglets (n=72; six at a time from the same litter, repeating 12 times) were obtained from Oak Hill Genetics (Ewing, Ill.) after 48-hour sow reared for colostrum consumption and iron supplementation.
Duodenal mucosal resistance was determined according to known methods and according to Tappenden et al., Short-Chain Fatty Acid-Supplemented Total Parenteral Nutrition Enhances Functional Adaptation to Intestinal Resection in Rats. Gastroenterology 1997; 112:792-802. Pieces of intestine (1 cm^2) were cut out, and the tissue was mounted as flat sheets in incubation chambers containing oxygenated Krebs' bicarbonate buffer (pH 7.4) at 37° C. Tissue discs were preincubated in this buffer for 15 minutes to allow equilibration at this temperature. After preincubation, the chambers were transferred to other beakers containing [^3H]inulin and various 14C probe molecules in oxygenated Krebs' bicarbonate (pH 7.4 and 37° C.). The concentration of solutes was 4, 8, 16, 32, or 64 mmol/L for D-glucose and 16 mmol/L for L-glucose. The preincubation and incubation solutions were mixed at identical stirring rates with circular magnetic bars, and the stirring rates were adjusted by means of a strobe light. A stirring rate of 600 rpm was selected to achieve low effective resistance of the intestinal unstirred water. The experiment was terminated by removing the chambers and quickly rinsing the tissue in cold saline for approximately 5 seconds. The exposed mucosal tissue was then cut out of the chamber with a circular steel punch. For all probes, the tissue was dried overnight in an oven at 55° C. The dry weight of the tissue was determined, the sample was saponified with 0.75N NaOH, scintillation fluid was added (Beckman Ready Solv HP; Beckman, Mississauga, ON), and radioactivity was determined by means of […] an external standardization technique to correct for variable quenching of the two isotopes. The mucosal weight was determined after scraping of the intestine from adjacent samples not used for uptake studies. The weight of the mucosa in the samples used to measure uptake was determined by multiplying the dry weight of the intestinal sample by the percentage of the intestinal wall comprised of mucosa.

[2] = tested on: Neonatal Yorkshire/Landrace cross bred piglets; assay: Cognitive assessment by eyeblink conditioning; design: key: + denotes a positive effect (compared to standard PN); ++ a very positive effect; − denotes no difference; details: compared to standard PN
From the text: Eyeblink conditioning is an established Pavlovian method to assess the cerebellum and associated brainstem circuitry with hippocampus involvement that are essential for learning and memory. The eyeblink conditioning procedure took place in a sound-attenuating chamber. A fan was inside the chamber and ran throughout the experiment for ambient noise (70 dB). A speaker mounted to the wall of the chamber delivered the tone conditioned stimulus (CS). A small plastic air puff delivery nozzle (San Diego Instruments, San Diego, Calif.) was secured at approximately 2 cm from the piglet's left eye to deliver the unconditioned stimulus (US). After adaptation to the conditioning apparatus on study day 3, a total of five CS-US conditioning sessions occurred on study days 4-8 following. Each conditioning session consisted of 90 CS-US paired trials and 10 CS alone trials for a total of 100 trials/session. Every tenth trial was a CS alone trial. The CS-US paired trials included: a 500 ms auditory CS (1 kHz, 85 dB tone), a 400 ms interstimulus interval (ISI), followed by a 100 ms corneal airpuff US (10 psi). Both the CS and US were co-terminated at the exact same time. The CS alone trials consisted of a 500 ms auditory CS (1 kHz, 85 dB tone) only. There were random inter-trial intervals of 20 seconds throughout each session. Each conditioning session lasted no longer than 35 minutes. The San Diego Instruments eyeblink software was used to record conditioning session moment-to-moment infrared-reflectance data.

[3] = tested on: Anti-inflammatory cytokines; assay: Anti-inflammatory cytokines, summary (site not stated); design: key: + denotes a positive effect (compared to standard PN); ++ a very positive effect; − denotes no difference; details: compared to standard PN
From the text: as §1
The influence of the respective supplements on inflammation was investigated by determining Il-6, Il-1beta, TNF-alpha and Il-10 serum levels in the intervention groups compared to EN and PN according to Milo et al., Effects of Short-Chain Fatty Acid-Supplemented Total Parenteral Nutrition on Intestinal Pro-Inflammatory Cytokine Abundance. Digestive Diseases and Sciences 2002; 47:2049-2055. Jejunal and ileal samples were homogenized in double-distilled water, and the Bradford protein assay (Biorad, Hercules, Calif., USA) was performed on homogenate and plasma samples. Protein (30 μg) from each sample was denatured by boiling, and proteins were separated by size using 12.5% sodium dodecyl sulfate polyacrylamide gel electrophoresis. Separated proteins were transferred to polyvinylidene difluoride membranes (Biorad) using a semidry transfer apparatus (Biorad). Western blot analysis for TNF-alpha, IL-1beta, Il-10 and IL-6 was performed using porcine-specific polyclonal antibodies (Endogen, Woburn, Mass., USA). A mouse anti-pig monoclonal TNF-alpha antibody was used to detect TNF-alpha ([…]). Rabbit anti-pig polyclonal antibodies specific for IL-1beta and IL-6 were used to detect IL-1beta (17,500 kDa), Il-10 (18,600 kDa) and IL-6 (26,000 kDa). Membranes were developed using the Opti-4CN kit (Biorad) and photographed using the FOTO/Analyst Image Analysis System (Fotodyne, Inc., Hartland, Wis., USA). Densitometry of TNF-alpha, IL-1beta, IL-6, and Il-10 was performed using Collage Image Analysis Software 4.0 (Fotodyne, Inc.). Results are shown in FIG. 15 (Il-6), FIG. 16 (Illbeta), FIG. 17 (TNF-alpha) and FIG. 18 (Il-10).

CCCC(=O)OCC(COC(=O)CCC)OC(=O)CCC [Tributyrin] was tested, and the “duodenal mucosal resistance, in words” value ([1]; 10 mmol/L TPN (Groups A, C, D)) was “significantly different from the PN”, the “Mean duodenal mucosal resistance” value ([1]; 10 mmol/L TPN (Groups A, C, D)) was 21.8442 and the “Duodenal mucosal resistance, Grouping (Fisher's LSD test)” value (shortened to “Duodenal mucosal resistance, Grouping”) ([1]; 10 mmol/L TPN (Groups A, C, D)) was “ab”. The “Duodenal Mucosal Resistance (Ussing chamber)” value ([1]; 10 mmol/L) was “=”, the “duodenal mucosal resistance, in words” value ([1]; 30 mmol/L TPN (Group B)) was “significantly different from the PN” and the “Mean duodenal mucosal resistance” value ([1]; 30 mmol/L TPN (Group B)) was 16.0234. For the same molecule, the “Duodenal mucosal resistance, Grouping” value ([1]; 30 mmol/L TPN (Group B)) was “ab”, the “Duodenal Mucosal Resistance (Ussing chamber)” value ([1]; 30 mmol/L) was “=” and the Cognitive ([2]; 10 mmol/L in PN) was “−”. The Cognitive ([2]; 30 mmol/L in PN) was “−”, the Anti-inflammatory cytokines ([3]; 10 mmol/L in PN) was “−” and the Anti-inflammatory cytokines ([3]; 30 mmol/L in PN) was “+”.
With “L-arginine, butanoate (3:4) [Arginine butyrate]” the “duodenal mucosal resistance, in words” value ([1]; 10 mmol/L TPN (Groups A, C, D)) was “significantly lower loss of mucosal resistance compared to the other intervention groups”, the “Mean duodenal mucosal resistance” value ([1]; 10 mmol/L TPN (Groups A, C, D)) was 8.2593 and the “Duodenal mucosal resistance, Grouping” value ([1]; 10 mmol/L TPN (Groups A, C, D)) was “b”. For the same molecule, the “duodenal mucosal resistance, in words” value ([1]; 10 mmol/L TPN (Groups A, C, D), listed as C) was “significantly different from the PN”, the “Duodenal Mucosal Resistance (Ussing chamber)” value ([1]; 10 mmol/L) was “++^2 (++ indicates P < 0.05)” and the Cognitive ([2]; 10 mmol/L in PN) was “−”. For the same molecule, the Anti-inflammatory cytokines ([3]; 10 mmol/L in PN) was “++”.
With CCCCCCCCCCCCCCCC(=O)OCC(COC(=O)CCC)OC(=O)CCCCCCCCCCCCCCC (stereo not drawn) [1,2-Dipalmitoyl 3-butyryl glycerol] the “Mean duodenal mucosal resistance” value ([1]; 10 mmol/L TPN (Groups A, C, D)) was 15.8264, the “Duodenal mucosal resistance, Grouping” value ([1]; 10 mmol/L TPN (Groups A, C, D)) was “ab” and the “duodenal mucosal resistance, in words” value ([1]; 10 mmol/L TPN (Groups A, C, D), listed as D) was “significantly different from the PN; also recorded: almost as good as in Group E”. The Cognitive ([2]; 10 mmol/L in PN) was “−” and the Anti-inflammatory cytokines ([3]; 10 mmol/L in PN) was “+”.
